These results are taken from patent US8143212B2 (Vicuron Pharmaceuticals Inc., priority 2002, dated 2012).

The test system of one test is Staph. aureus. Briefly: ED50 against Staph. aureus murine septicaemias (Table 2). Format: in vivo. The note with it: treatment once within 10 min from infection by sc route.
The next test relates to S aureus. Nature of the test: MIC, microbiological activity (Tables 2, 3). Format: cell-based.
The next test relates to S epidermidis. Briefly: MIC, microbiological activity (Table 3). Format: cell-based. As to conditions: L 147 S epidermidis.
The test system of a further test is S pyogenes. Briefly: MIC, microbiological activity (Table 3). It is filed as cell-based. As to conditions: L 49 S pyogenes C203.
The subject of another test is S pneumoniae. Briefly: MIC, microbiological activity (Table 3). Format: cell-based. As to conditions: L 44 S pneumoniae UC41.
For another test, the system named is S haemolyticus. Nature of the test: MIC, microbiological activity (Table 3). It is filed as cell-based. As to conditions: L 602 S haemolyticus clin. isolate.
The subject of a further test is E faecalis. Briefly: MIC, microbiological activity (Table 3). Format: cell-based.
The next test has as its system E. faecium Van-A. Briefly: MIC, microbiological activity (Table 3). Format: cell-based. As to conditions: L 1666 E. faecium Van-A.
In another test the test system is B subtilis. Briefly: MIC, microbiological activity (Table 3). The note with it: L 102 B subtilis ATCC. Format: cell-based.
The next test deals with E coli. Nature of the test: MIC, microbiological activity (Table 3). It is filed as cell-based. The note with it: G 16440 E coli iperperm.
The test system of another test is P vulgaris. Briefly: MIC, microbiological activity (Table 3). As to conditions: L 79 P vulgaris. Format: cell-based.
A further test deals with P aeruginosas. Nature of the test: MIC, microbiological activity (Table 3). The note with it: L 4 P aeruginosas ATCC10145. Format: cell-based.
The subject of a further test is C albicans. Briefly: MIC, microbiological activity (Table 3). As to conditions: L 145 C albicans SKF2270. It is filed as cell-based.

Structures are written as SMILES. ≈ marks a conversion by molar mass, not a printed value. Where “and” joins values, the source holds several entries; their conditions need not be identical. Equal values may be shown once. Bounds are passed on as bounds.

On to `CN[C@H]1C(=O)N[C@@H]2Cc3ccc(cc3)Oc3cc4cc(c3O)Oc3ccc(cc3Cl)[C@@H](O)[C@@H]3NC(=O)[C@H](NC(=O)[C@@H]4NC(=O)[C@@H](NC2=O)c2cc(cc(O)c2Cl)Oc2cc1ccc2O)c1ccc(O)c(c1)-c1c(O[C@H]2O[C@H](CO)[C@@H](O)[C@H](O)[C@@H]2O)cc(O)cc1[C@@H](C(=O)NCCCN(C)C)NC3=O` [MAG], for which the ED50 is 1.6 mg/kg with Staph. aureus (MRSA Staph. aureus 3817) and 0.3 mg/kg in the test with Staph. aureus (MSSA Staph. aureus Smith 819). Besides, the MIC against S aureus (3797 S aureus clin. Isolate GISA) is 0.5-0.5 μg/ml; against S aureus (3817 S aureus clin. Isolate), 0.5 µg/mL (≈ 0.343 µM); against S aureus (L 613 S aureus clin. isolate), 1 µg/mL and 0.5 µg/mL; in the test on S aureus (L 819 S aureus Smith) it was 0.5 µg/mL and 0.25 µg/mL; in the test with S aureus (L 819 S aureus Smith 50% serum) it was 1-1-1 μg/ml; against S aureus (MRSA Staph. aureus 3817), 0.5 µg/mL (≈ 0.343 µM). Further, the MIC against S aureus (MSSA Staph. aureus Smith 819) is 0.5 µg/mL (≈ 0.343 µM); against S epidermidis, 0.25 µg/mL and 0.13 µg/mL; against S pyogenes it was 0.5 µg/mL and 0.25 µg/mL; with S pneumoniae, 1 µg/mL and 0.5 µg/mL; against S haemolyticus, >32-32 μg/ml; in the test with E faecalis (L 149 E faecalis), 0.25 µg/mL and 0.5 µg/mL. Also, the MIC against E faecalis (L 562 E faecalis clin. isolate) was 32->32->32 μg/ml; in the test on E. faecium Van-A, >32->32->32 μg/ml; in the test on B subtilis it was 0.13-0.13 μg/ml; in the test with E coli, 8 µg/mL and 16 µg/mL; against P vulgaris it was >32->32->32 μg/ml; with P aeruginosas, >32->32->32 μg/ml. For the same molecule, the MIC with C albicans was >32->32->32 μg/ml.
